# Measurements: US20040214839A1, “Therapeutic methods” (priority 2001, published 2004)
# What was measured:
# [1] = tested on: IL-10 release from U937 cells; assay: IL-10 release from U937 cells (ELISA); type: cell-based, human; conditions: for stimulation of IL-10 in the presence of a type IV selective PDE inhibitor: with vs without type IV selective PDE inhibitor (rolipram)
# Description: U 937 cells were grown in RPMI (PAA Laboratories) medium with 10% fetal calf serum added (PAA Laboratories). 2×10^6 cells per flask were treated with prostaglandin E2 at 10^−6 Molar or with Rolipram (4×10^−6) for 24 hours. Medium was removed at […] and analysed by ELISA. A capture antibody (Pharmingen) was coated onto 96 well plates and culture medium was added each well. A standard curve was created with recombinant IL-10 protein. After incubation and washing, a biotin labelled monoclonal antibody (Pharmingen) was added and following incubation and washing, peroxidase labelled streptavidin was added. After washing a tetramethyl benzidine substrate was added and colour developed in proportion to IL-10 in the original sample/standard. Colour was read using a plate photometer (Labsystems, Multiskan). Mean concentrations (N=3) in controls with no lipopolysaccharide (LPS) were 38.2 pg/ml and in the presence of LPS (100 nM) they were 43.9 […].
# The effect of PGE1, PGE2, 19 hydroxy PGE1 and 19 hydroxy PGE2 on the stimulation of IL-10 in the presence and absence of rolipram was investigated as described above in Example 2. IL-10 levels were measured using an ELISA assay (R&D Ltd, Oxford). Measurements were taken in accordance with the manufacturer's instructions.
# [2] = tested on: phosphodiesterase IV-b mRNA; assay: Phosphodiesterase IV b mRNA in U937 cells (Taqman); type: cell-based, human; conditions: four hours of incubation; PGE 1×10^-6, 19-hydroxy PGE2 5×10^-6; without inhibitor
# Description: After the incubation (20 hours), cells were pelleted and the mRNA was extracted with Tri-reagent (Sigma, Poole, UK). Total RNA was obtained by addition of chloroform and subsequent isopropanol precipitation. RNA was reverse transcribed with reverse transcriptase (Applied Biosystems) and random hexamers (Applied Biosystems). Probes and primers for IL-10 and IL-12 (p35) were designed using Primer Express (Applied Biosystems) and were as follows:
# Template was amplified in a Taqman 7700 machine for 40 cycles using FAM/TAMRA dyes on the probe. The Applied Biosystems kit was used to amplify and detect ribosomal (18S)RNA (using VIC/TAMRA dyes) as an internal control in the same reaction tube. After 40 cycles the Ct (related to cycle number at which signal appears) for the FAM and the 18S (VIC) were recorded and […] relative quantitation was achieved using the formula 2^−ΔΔct where Δ refers to the difference between the FAM and VIC signal related to an standard comparator included in each run.
# The mRNA for phosphodiesterase IV-b was measured as described in Example 2 above mRNA was extracted after four hours of incubation. The concentration of the PGE was 1×10^−6 and that of the 19-hydroxy PGE2 was 5×10^−6. The following primers and Taqman probe were used for quantitation of PDE IV b mRNA.
# [3] = in vivo; cited from earlier work
# type IV PDE = conditions: cited from earlier work; for IC50: type IV PDE inhibitor
Compound,stimulation of IL-10 in the presence of a type IV selective PDE inhibitor [1],PDE activity (phosphodiesterase IV b mRNA) after prostaglandin application [2],IC50 (type IV PDE),other results
19-hydroxy PGE2,increased strikingly,increase,,"concentration necessary to achieve similar effects to PGE ([1]; compared with PGE, Figures and Examples): higher concentration"
"CCCCC(C)(O)CC=C[C@H]1[C@H](O)CC(=O)[C@@H]1CCCCCCC(=O)OC (mixture of isomers) [misoprostol, (±) methyl 11α, 16-dihydroxy-16-methyl-9-oxoprost-13-enoate]",,,,hypotension [3]: does not cause hypotension
"CCCCC[C@H](O)/C=C/[C@H]1[C@H](O)CC(=O)[C@@H]1C/C=C\CCCC(=O)O [PGE, prostaglandin E2]",increased strikingly,increase,,
"CCCCOc1cc(CC2CNC(=O)N2)ccc1OC (stereo not drawn) [Ro-20-1724, 4-[3-butoxy-4-methoxybenzyl]-2-imidazolidinone]",,,2 µM,
"COc1ccc(C2CNC(=O)C2)cc1OC1CCCC1 (stereo not drawn) [rolipram, 4-[3-cyclopentyloxy 4-methoxyphenyl]-2-pyrrolidinone]",,,0.8 µM,
Cn1c(=O)c2[nH]cnc2n(C)c1=O [theophylline],,,,times less effective than rolipram (type IV PDE; non-selective inhibitor compared with rolipram): 30 times
